Experimental data: ChEMBL document CHEMBL1201862, “PubChem BioAssay data set” (2004)
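Grown in 96-well plates, cells were treated for 48 hours with each compound at five concentrations. Insufficient inhibition: endpoint recorded as highest concentration tested. GI50: concentration for 50% inhibition of growth.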 Active and inactive are the calls of the source. Rule as the data show it: active = GI50 up to about 1.1 µM and inactive = higher.

What was measured:
Assay in all cases: inhibition of tumour cell growth, NCI panel, 48 h
ACHN = tested on: ACHN
BT-549 = tested on: BT-549
COLO 205 = tested on: COLO 205
HCT-116 = tested on: HCT-116
HL-60 = tested on: HL-60
HT-29 = tested on: HT-29
KM12 = tested on: KM12
MCF7 = tested on: MCF7
MDA-MB-435 = tested on: MDA-MB-435
MDA-N = tested on: MDA-N
Malme-3M = tested on: Malme-3M
NCI-H522 = tested on: NCI-H522
NCI/ADR-RES = tested on: NCI/ADR-RES
OVCAR-5 = tested on: OVCAR-5
SK-MEL-28 = tested on: SK-MEL-28
T47D = tested on: T47D
UACC-257 = tested on: UACC-257
UO-31 = tested on: UO-31
RPMI-8226 = tested on: RPMI-8226

Measured: GI50

O=C1CC(=O)c2c(Cl)sc(Cl)c21
inactive: ACHN > 100 µM | BT-549 > 100 µM | COLO 205 > 100 µM | HCT-116 > 100 µM | HL-60 30.3 µM | HT-29 > 100 µM | KM12 > 100 µM | MCF7 45.5 µM | MDA-MB-435 64.1 µM | MDA-N > 100 µM | Malme-3M 21.6 µM | NCI-H522 23.8 µM | NCI/ADR-RES > 100 µM | OVCAR-5 > 100 µM | SK-MEL-28 53.8 µM | T47D > 100 µM | UACC-257 > 100 µM | UO-31 > 100 µM

CC1CCc2sc3nc(S)n(-c4ccccc4)c(=O)c3c2C1 (centres undefined)
inactive: ACHN 62.5 µM | BT-549 > 100 µM | COLO 205 > 100 µM | HCT-116 > 100 µM | HT-29 39.6 µM | KM12 75.2 µM | MCF7 39 µM | MDA-MB-435 > 100 µM | MDA-N > 100 µM | Malme-3M 66.8 µM | NCI-H522 > 100 µM | NCI/ADR-RES > 100 µM | OVCAR-5 86.9 µM | RPMI-8226 53 µM | SK-MEL-28 93.1 µM | T47D 33.4 µM | UACC-257 63.8 µM | UO-31 15.1 µM

COc1ccc2c(c1)OCC1Cc3cc4c(cc3OC21)OCO4 (centres undefined)
inactive: ACHN 97.3 µM | BT-549 61 µM | COLO 205 35.9 µM | HCT-116 31 µM | HT-29 35.1 µM | KM12 31.8 µM | MCF7 46.8 µM | MDA-MB-435 7.73 µM | MDA-N 3.14 µM | Malme-3M 54.1 µM | NCI-H522 49.2 µM | NCI/ADR-RES 26.2 µM | OVCAR-5 60.7 µM | RPMI-8226 71.4 µM | T47D 32.1 µM | UACC-257 30.2 µM | UO-31 38.6 µM

S=C(Nc1ccc(Cl)cc1)SC1CCCCC1
inactive: ACHN 17.5 µM | BT-549 29 µM | COLO 205 30.5 µM | HCT-116 25.6 µM | HT-29 20.8 µM | KM12 28 µM | MCF7 19 µM | MDA-MB-435 29.9 µM | MDA-N 22.8 µM | Malme-3M 28.4 µM | NCI-H522 19.7 µM | NCI/ADR-RES 37.1 µM | OVCAR-5 17.5 µM | RPMI-8226 40.1 µM | SK-MEL-28 17.3 µM | T47D 22.5 µM | UACC-257 25.9 µM | UO-31 27 µM

Nc1nc(N)c(NC(=O)CCCO)c(=O)[nH]1
inactive: ACHN > 100 µM | BT-549 > 100 µM | COLO 205 > 100 µM | HCT-116 > 100 µM | HT-29 > 100 µM | KM12 > 100 µM | MCF7 > 100 µM | MDA-MB-435 > 100 µM | MDA-N > 100 µM | Malme-3M > 100 µM | NCI-H522 67.1 µM | NCI/ADR-RES > 100 µM | OVCAR-5 > 100 µM | RPMI-8226 > 100 µM | T47D > 100 µM | UACC-257 > 100 µM | UO-31 > 100 µM

C=CC[C@H](N=C(SC)SC)C(=O)N1C(=O)N(C)[C@@H](C)[C@H]1c1ccccc1
inactive: ACHN 49.4 µM | BT-549 34.6 µM | COLO 205 28 µM | HCT-116 33 µM | HL-60 34 µM | HT-29 38.6 µM | KM12 36.2 µM | MCF7 34.8 µM | MDA-MB-435 33.8 µM | MDA-N 33.8 µM | Malme-3M 51.6 µM | NCI-H522 14.9 µM | NCI/ADR-RES 29.5 µM | OVCAR-5 54.6 µM | SK-MEL-28 39.5 µM | T47D 40.5 µM | UACC-257 29.2 µM | UO-31 47.9 µM

CCOC(=O)c1nnsc1NC(=O)Nc1ccc(Cl)cc1
inactive: ACHN > 100 µM | BT-549 > 100 µM | COLO 205 67.3 µM | HCT-116 25.4 µM | HT-29 54.3 µM | KM12 51.6 µM | MDA-MB-435 > 100 µM | MDA-N 32.8 µM | Malme-3M 75.5 µM | NCI-H522 15.8 µM | NCI/ADR-RES 25.1 µM | OVCAR-5 > 100 µM | RPMI-8226 44.5 µM | SK-MEL-28 > 100 µM | T47D 34.3 µM | UACC-257 > 100 µM | UO-31 31.1 µM

CC(C)OC1OC(CO)C(O)CC1n1cc(F)c(=O)[nH]c1=O (centres undefined)
inactive: ACHN > 100 µM | BT-549 > 100 µM | COLO 205 > 100 µM | HCT-116 > 100 µM | HT-29 > 100 µM | KM12 > 100 µM | MCF7 46 µM | MDA-MB-435 > 100 µM | MDA-N > 100 µM | Malme-3M 86.1 µM | NCI-H522 16.2 µM | NCI/ADR-RES > 100 µM | OVCAR-5 > 100 µM | RPMI-8226 39.4 µM | SK-MEL-28 > 100 µM | T47D 48.4 µM | UACC-257 > 100 µM | UO-31 > 100 µM

CN1C(=O)C(O)CC1c1cccc(F)c1 (centres undefined)
inactive: ACHN > 100 µM | BT-549 > 100 µM | COLO 205 > 100 µM | HCT-116 > 100 µM | HL-60 > 100 µM | HT-29 > 100 µM | KM12 > 100 µM | MCF7 > 100 µM | MDA-MB-435 > 100 µM | MDA-N > 100 µM | Malme-3M > 100 µM | NCI-H522 > 100 µM | NCI/ADR-RES > 100 µM | OVCAR-5 > 100 µM | RPMI-8226 > 100 µM | SK-MEL-28 > 100 µM | UACC-257 > 100 µM | UO-31 > 100 µM

O=C1C=C(NCCc2ccc(O)cc2)C(=O)C=C1NCCc1ccc(O)cc1
inactive: ACHN > 100 µM | BT-549 > 100 µM | COLO 205 > 100 µM | HCT-116 50 µM | HL-60 19.2 µM | HT-29 > 100 µM | KM12 > 100 µM | MCF7 > 100 µM | MDA-MB-435 49.1 µM | Malme-3M > 100 µM | NCI-H522 > 100 µM | NCI/ADR-RES > 100 µM | OVCAR-5 > 100 µM | RPMI-8226 > 100 µM | SK-MEL-28 > 100 µM | T47D > 100 µM | UACC-257 > 100 µM | UO-31 > 100 µM

CC(=O)Oc1c(N2CCCCC2)c(C(=O)c2ccccc2)c(O)c2ccn(N(C)C)c12
inactive: ACHN 18.5 µM | BT-549 20.6 µM | COLO 205 16.7 µM | HCT-116 9.51 µM | HL-60 6.38 µM | HT-29 14.6 µM | KM12 10.9 µM | MCF7 10.5 µM | MDA-MB-435 19.7 µM | MDA-N 17.9 µM | Malme-3M 17.3 µM | NCI/ADR-RES 15.7 µM | OVCAR-5 25.5 µM | RPMI-8226 7.01 µM | SK-MEL-28 19.1 µM | UACC-257 16.8 µM | UO-31 17.6 µM
